{"source": "patent US9540336B2", "about": "“Therapeutic agents” (priority 2011, dated 2017)", "key": {"M. smegmatis membranes [1]": {"tested_on": "M. smegmatis membranes", "type": "biochemical"}, "[2]": {"test": "Solubility and cationic/uncharged species in detergents (Triton X-100, Na-lauroyl sarcosine)"}, "[3]": {"tested_on": "P. denitrificans membranes", "test": "Restoration of NADH oxidation and ROS production, P. denitrificans membranes", "type": "biochemical, Paracoccus denitrificans"}, "Enterococcus faecium": {"tested_on": "Enterococcus faecium", "test": "Antimicrobial activity (MIC)", "type": "cell-based"}, "P. aeruginosa membranes": {"tested_on": "P. aeruginosa membranes", "test": "Restoration of NADH oxidation and ROS production, P. aeruginosa membranes", "type": "biochemical, Pseudomonas aeruginosa"}, "E. coli membranes": {"tested_on": "E. coli membranes", "test": "Restoration of NADH oxidation and ROS production, E. coli membranes", "type": "biochemical"}, "[4]": {"target": "recombinant M. tuberculosis NDH-2 (Mycobacterium tuberculosis, UniProt P95160)", "sequence (P95160 whole entry, looked up)": "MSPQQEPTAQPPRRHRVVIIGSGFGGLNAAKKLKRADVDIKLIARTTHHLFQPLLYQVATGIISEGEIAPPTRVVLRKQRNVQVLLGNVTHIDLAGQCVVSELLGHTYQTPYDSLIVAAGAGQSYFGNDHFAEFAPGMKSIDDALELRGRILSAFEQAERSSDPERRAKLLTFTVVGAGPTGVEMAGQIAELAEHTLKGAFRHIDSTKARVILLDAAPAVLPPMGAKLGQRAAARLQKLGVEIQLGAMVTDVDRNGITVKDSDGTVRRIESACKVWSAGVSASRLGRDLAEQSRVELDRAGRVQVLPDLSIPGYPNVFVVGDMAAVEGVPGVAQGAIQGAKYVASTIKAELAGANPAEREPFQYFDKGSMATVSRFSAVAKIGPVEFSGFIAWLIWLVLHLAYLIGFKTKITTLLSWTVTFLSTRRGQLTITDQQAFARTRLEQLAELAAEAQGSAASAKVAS", "type": "biochemical"}, "[5]": {"tested_on": "submitochondrial membranes from S. cerevisiae", "test": "Restoration of NADH oxidation and ROS production, S. cerevisiae submitochondrial membranes", "type": "biochemical"}, "S. aureus membranes": {"tested_on": "S. aureus membranes", "test": "Restoration of NADH oxidation and ROS production, S. aureus membranes", "type": "biochemical, Staphylococcus aureus"}, "Bacillus thuringiensis": {"tested_on": "Bacillus thuringiensis", "test": "Antimicrobial activity (MIC)", "type": "cell-based"}, "[6]": {"settings": "cited from earlier work"}, "[7]": {"test": "Solubility in buffered water as a function of pH (centrifugation, spectroscopy)", "type": "physicochemical"}, "[8]": {"tested_on": "Staphylococcus aureus MRSA", "test": "Antimicrobial activity (MIC)", "type": "cell-based"}, "Enterococcus faecalis": {"tested_on": "Enterococcus faecalis", "test": "Antimicrobial activity (MIC)", "type": "cell-based"}, "M. smegmatis mc2 155": {"tested_on": "M. smegmatis mc2 155", "test": "M. smegmatis growth inhibition (colony counts on 7H9 agar)", "type": "cell-based", "settings": "for effect of antioxidants (α-tocopherol, 4-hydroxy-TEMPO, N-acetylcysteine) on growth inhibition: 0.5 μg/ml CFZ or 10 μg/ml INH"}, "M. smegmatis membranes [9]": {"tested_on": "M. smegmatis membranes", "test": "ROS production by M. smegmatis log-phase membranes (Amplex Red/HRP/superoxide dismutase)", "type": "biochemical"}, "M. smegmatis membranes [10]": {"tested_on": "M. smegmatis membranes", "test": "Reduction and reoxidation (redox cycling) with M. smegmatis membranes and NADH", "type": "biochemical"}, "rat mitochondria": {"tested_on": "rat mitochondria", "test": "Restoration of NADH oxidation, rat mitochondria", "type": "biochemical", "settings": "KCN-inhibited rat mitochondria"}, "[11]": {"tested_on": "E. faecalis membranes (NDH-2)", "test": "E. faecalis membranes: NADH-Q0 reductase activity and ROS production", "type": "biochemical"}}, "note": "“And” between values parts separate entries of the source, which are not always exact repeats. Equal values may be shown once. “Also recorded” adds a separate entry of the source.", "data": [{"smiles": "CC(C)N=c1cc2n(-c3ccc(Cl)cc3)c3ccccc3nc-2cc1Nc1ccc(Cl)cc1", "note": "[CFZ, 3-(4-chloroanilino)-10-(4-chlorophenyl)-2,10-dihydro-2-(isopropylimino)-phenazine]", "values": [{"measurement": "CFZ-mediated NADH oxidase rate relative to rate in absence of KCN", "setting": "M. smegmatis membranes [1]", "value": "25-70%"}, {"measurement": "fraction of NADH oxidase activity restored (maximum)", "setting": "M. smegmatis membranes [1]", "value": "0.25 and 0.40-0.70"}, {"measurement": "restoration of NADH oxidation", "setting": "M. smegmatis membranes [1]", "value": "restored a significant level of NADH oxidation"}, {"measurement": "pKa", "setting": "[2]; buffered Triton X-100 detergent solution", "value": 6.8}, {"measurement": "solubility", "setting": "[2]; pH 3.5, aqueous with cosolvent or surfactant or cyclodextrin", "value": "≥ 50", "unit": "µM"}, {"measurement": "solubility", "setting": "[2]; pH 5, aqueous with cosolvent or surfactant or cyclodextrin", "value": "≥ 50", "unit": "µM"}, {"measurement": "restoration of NADH oxidation", "setting": "[3]; KCN-inhibited P. denitrificans membranes", "value": "did not exhibit significant CFZ-mediated NADH oxidation or ROS production; also recorded: little, if any, restoration of NADH oxidation"}, {"measurement": "ROS production", "setting": "[3]; P. denitrificans membranes", "value": "did not exhibit significant CFZ-mediated NADH oxidation or ROS production"}, {"measurement": "MIC", "setting": "Enterococcus faecium", "value": 10, "unit": "µM"}, {"measurement": "restoration of NADH oxidation", "setting": "P. aeruginosa membranes; KCN-inhibited P. aeruginosa membranes", "value": "did not exhibit significant CFZ-mediated NADH oxidation or ROS production; also recorded: little, if any, restoration of NADH oxidation"}, {"measurement": "ROS production", "setting": "P. aeruginosa membranes; P. aeruginosa membranes", "value": "did not exhibit significant CFZ-mediated NADH oxidation or ROS production"}, {"measurement": "ROS production", "setting": "E. coli membranes; E. coli membranes", "value": "did not exhibit significant CFZ-mediated NADH oxidation or ROS production"}, {"measurement": "restoration of NADH oxidation", "setting": "E. coli membranes; KCN-inhibited E. coli membranes", "value": "did not exhibit significant CFZ-mediated NADH oxidation or ROS production; also recorded: no restoration of NADH oxidation; also recorded: little, if any, restoration of NADH oxidation"}, {"measurement": "ROS generation with purified NDH-2 and NADH", "setting": "[4]", "value": "generation of ROS"}, {"measurement": "reduction by purified NDH-2", "setting": "[4]; pH 6.5", "value": "purified NDH-2 reduces CFZ"}, {"measurement": "restoration of NADH oxidation", "setting": "[5]; KCN-inhibited S. cerevisiae submitochondrial membranes", "value": "significant restoration of NADH oxidation"}, {"measurement": "ROS production", "setting": "[5]; S. cerevisiae submitochondrial particles", "value": "able to oxidize NADH and generate ROS"}, {"measurement": "restoration of NADH oxidation", "setting": "S. aureus membranes; KCN-inhibited S. aureus membranes", "value": "significant restoration of NADH oxidation"}, {"measurement": "ROS production", "setting": "S. aureus membranes; S. aureus membranes", "value": "able to oxidize NADH and generate ROS"}, {"measurement": "inhibitory effect of high levels on mediated NADH oxidation", "setting": "S. aureus membranes; S. aureus membranes", "value": "inhibitory"}, {"measurement": "MIC", "setting": "Bacillus thuringiensis", "value": 5, "unit": "µM"}, {"measurement": "redox potential Em, cationic species", "setting": "[6]; Kovacic et al. 1989", "value": "−180", "unit": "mV"}, {"measurement": "redox potential Em, uncharged species", "setting": "[6]; Kovacic et al. 1989", "value": "−950", "unit": "mV"}, {"measurement": "pKa (commonly quoted)", "setting": "[6]; unclear origin", "value": 8.5}, {"measurement": "fraction of CFZ remaining in solution", "setting": "[7]; 50 mM MOPS/Na+ pH 6.5, 2.0 mM MgCl2, 1.18 μg/ml, 40 min", "value": "~70", "unit": "%"}, {"measurement": "soluble compound in water", "setting": "[7]; above pH 7.5", "value": "not detectable"}, {"measurement": "solubility", "setting": "[7]; buffered water (0.1 M buffer), 23 °C, pH 7, aqueous buffer, kinetic from dmso stock, neutral pH, 50 μM added, overnight, centrifuged", "value": "< 2", "unit": "µM"}, {"measurement": "solubility in water", "setting": "[7]; pH 3.5", "value": "virtually all the drug remained in the supernatant"}, {"measurement": "soluble compound in water", "setting": "[7]; pH 6.5", "value": "barely detectable"}, {"measurement": "fraction of CFZ remaining soluble", "setting": "[7]; reaction buffer pH 6.5, 1.2 μg/ml, 40-min incubation", "value": "About two-thirds"}, {"measurement": "MIC", "setting": "[8]", "value": 2.5, "unit": "µM"}, {"measurement": "MIC", "setting": "Enterococcus faecalis", "value": 10, "unit": "µM"}, {"measurement": "effect of antioxidants (α-tocopherol, 4-hydroxy-TEMPO, N-acetylcysteine) on growth inhibition", "setting": "M. smegmatis mc2 155", "value": "nullified the growth inhibitory activity; also recorded: prevented"}, {"measurement": "colony formation of M. smegmatis on agar", "setting": "M. smegmatis mc2 155; 0.5 μg/ml CFZ or more, ≧4 days, control 670±100 colonies", "value": "undetectable; also recorded: Virtually no colonies"}, {"measurement": "increase of rate of ROS production over background", "setting": "M. smegmatis membranes [9]; log-phase membranes, NADH, 0.5 μg CFZ", "value": 11.5, "unit": "fold"}, {"measurement": "ROS (resorufin) production rate relative to rate of NADH consumption / electron transport chain", "setting": "M. smegmatis membranes [9]; maximum, 0.1-0.2 μg CFZ/μg membrane protein, no KCN", "value": "~18", "unit": "%"}, {"measurement": "CFZ reduction and ROS production with succinate instead of NADH", "setting": "M. smegmatis membranes [9]; succinate as electron donor", "value": "neither CFZ reduction nor ROS production was observed"}, {"measurement": "observed first order rate constant of reoxidation of reduced CFZ", "setting": "M. smegmatis membranes [10]; 0.5% SDS (final) added", "value": "1.40 ± 0.01", "unit": "min⁻¹"}, {"measurement": "reduction on NADH addition with membranes", "setting": "M. smegmatis membranes [10]; M. smegmatis membranes, NADH", "value": "marked loss of CFZ absorbance"}, {"measurement": "observed first (pseudo) order rate constant of reoxidation of reduced CFZ", "setting": "M. smegmatis membranes [10]; after agitation, no SDS", "value": "1.25 ± 0.01", "unit": "min⁻¹"}, {"measurement": "second order rate constant for reoxidation of reduced CFZ by O2", "setting": "M. smegmatis membranes [10]; assuming 250 μM O2", "value": "~100 M⁻¹ s⁻¹ and 83 M⁻¹ s⁻¹"}, {"measurement": "restoration of NADH oxidation", "setting": "rat mitochondria", "value": "little, if any, restoration of NADH oxidation"}]}, {"smiles": "CN(C)CCCN1c2ccccc2Sc2ccc(Cl)cc21", "note": "[CPZ, chlorpromazin]", "values": [{"measurement": "effect on NADH-Q0 reductase activity (NADH oxidation)", "setting": "[11]; 400 μM CPZ, 0.2 mM NADH, 2 mM Q0", "value": "completely ceased"}, {"measurement": "inhibition of KS6-mediated ROS production", "setting": "[11]; E. faecalis membranes", "value": "complete inhibition"}]}, {"smiles": "NNC(=O)c1ccncc1", "note": "[INH, isoniazid]", "values": [{"measurement": "effect of antioxidants (α-tocopherol, 4-hydroxy-TEMPO, N-acetylcysteine) on growth inhibition", "setting": "M. smegmatis mc2 155", "value": "not altered; also recorded: not sensitive to antioxidants"}, {"measurement": "M. smegmatis growth", "setting": "M. smegmatis mc2 155; 10 μg/ml", "value": "completely inhibited"}]}, {"smiles": "CN1CCN(CCCN2c3ccccc3Sc3ccc(C(F)(F)F)cc32)CC1", "note": "[TPZ, trifluoperazine]", "values": [{"measurement": "inhibition of NADH oxidase activity", "setting": "M. smegmatis membranes [1]", "value": "inhibited CFZ-mediated NADH oxidase activity"}, {"measurement": "effect on ROS formation by purified NDH-2 with CFZ", "setting": "[4]", "value": "inhibited"}, {"measurement": "effect on CFZ-mediated ROS production", "setting": "M. smegmatis membranes [9]; TPZ 0.2 mM", "value": "sensitive to TPZ"}]}]}
